{"source": "patent US20200289456A1", "about": "“METHODS FOR INHIBITING TUMORS AND DRUG RESISTANCE” (SEQUOIA PHARMACEUTICALS, INC., priority 2015, published 2020)", "test_system": "tumors expressing high levels of CYP3A4", "experiment": "Combination of Docataxel and an ICI in patients (21 day treatment cycle)", "format": "in vivo", "method": "The compound of formula IA (150 mg po qd) is administered to patients for the first 3 days of a 21 day treatment cycle. Escalating doses of Docataxel are administered IV beginning on day 4. Docataxel is dose-escalated at 15, 25, 40, and 50 mg/m^2, where the standard dose is 75 mg/m^2."}
{"compound": "CCCCCCN(CCCN(CC(C)C)S(=O)(=O)c1ccc2occc2c1)C(=O)OC(C)(C)C", "note": "[IA]", "values": [{"measurement": "cancer cell kill in tumors expressing high levels of CYP3A4", "setting": "IA 150 mg po qd days 1-3, Docataxel IV from day 4", "value": "improves cancer cell kill"}, {"measurement": "toxicity of Docataxel", "setting": "IA 150 mg po qd days 1-3, lower dose of docataxel and lower Cmax while maintaining AUC", "value": "diminishes toxicity"}, {"measurement": "variability in AUC and drug response of Docataxel", "setting": "IA 150 mg po qd days 1-3 of 21 day cycle, Docataxel IV from day 4, 15-50 mg/m^2", "value": "decreases variability in AUC and drug response"}]}
